Data taken from patent US20100144855A1, “APPLICATION OF SEDOISOPROSAN FOR PREPARATION OF MEDICINE FOR TREATMENT OF HUMAN HBeAg POSITIVE CHRONIC HEPATITIS B” (priority 2008, published 2010).

Assays:
lymphocytes = conditions: sedoisoprosan associated with ConA and LPS, in vitro; cited from earlier work
hepatitis B virus = assay: clinical trial, curative effect in HBeAg positive chronic hepatitis B patients; format: in vivo, human
Experimental: The clinical trial protocol was designed according to the randomized, double-blind and controlled principle. The clinical efficacy and the safety of sedoisoprosan for therapy on human HBeAg positive chronic hepatitis B is defined according to the changes of vivo HBV-DNA level, ALT level, vital signs, blood routine indexes, blood biochemical indexes and thyroid function indexes before and after administration and the incidence of adverse events.
The clinical trials were performed on adult chronic hepatitis B patients who were HBsAg positive, HBeAg positive and HBsAb negative, with HBV-DNA levels more than 10^5 copies/ml and increased ALT.
Patients enrolled in the clinical trials must meet all the following criteria: signature of informed consent forms; age ≧18 years and ≦65 years; HBsAg positive, HBeAg positive and HBsAb negative for over 6 months; HBV-DNA level ≧10^5 copies/ml; increase in serum ALT level in 6 months before the first administration (ULN<ALT≦10×ULN for twice, wherein ALT≧2×ULN for once); negative pregnancy tests for women of child-bearing age in 24 hours before the first administration; and effective contraception measures used during the clinical trials and within 3 months after the therapy.
Since the effective doses of sedoisoprosan for reducing serum DHBV-DNA levels of ducks infected with hepatitis B virus was 200 mg/kg and 100 mg/kg (intraperitoneal injection, twice a day), doses of sedoisoprosan for the clinical trials may be between 200 mg and 800 mg (intravenous drip, once a day). […] For the purpose of the present invention, three doses of sedoisoprosan, 200 mg, 400 mg and 800 mg in 250ml 5% glucose solution (intravenous drip, within 60 mins), were used in the clinical trials.
According to the traditional treatment for chronic hepatitis B with interferon, patients enrolled in the clinical trials were administrated with sedoisoprosan once a day continuously for 4 weeks, then 3 times a week continuously for 8 weeks.
Three doses of sedoisoprosan, 200 mg, 400 mg and 800 mg respectively, were used for treatment. Mannite of 800 mg was used for negative control.
Patients enrolled in the clinical trials were randomly divided into four groups, i.e. negative control group (800 mg mannite), low dose group (200 mg sedoisoprosan with 600 mg mannite), median dose group (400 mg sedoisoprosan with 400 mg mannite) and high dose group (800 mg sedoisoprosan) respectively. Each patient was assigned with a CRF No. which was randomly generated by computer.
Baseline assessment was performed on the day of the first administration, which included medical examination, hematological examination, blood biochemical examination, thyroid function examination, ALT examination and quantitative detection of HBV-DNA. The medical examination included the examination of stature, avoirdupois, blood pressure and pulse rate. The hematological examination included the leucocyte, neutrophil, erythrocyte, platelet and haemoglobin counts, and the prothrombin time. The blood biochemical examination included the examination of serum potassium, sodium, GOT, total bilirubin, AKP, total protein, albumin, total cholesterol, triglyceride, urea nitrogen, creatinine and glucose.
The patients were followed up at the 1st, 2nd, 4th, 8th and 12th week of the treatment. The blood biochemical examination and the quantitative detection of HBV-DNA was performed at the 2nd, 4th, 8th and 12th week of the treatment, and the adverse events were recorded at the same time. The thyroid function examination was performed at the 12th week of the treatment.
The primary curative effect index was the virologic response rate at the 12th week of the treatment, i.e. the proportion of patients having HBV-DNA levels not more than 2×10^4 copies/ml or having a decline in HBV-DNA levels of 2 log10 copies/ml compared to the baseline value. […]

[1] = tested on: duck hepatitis B virus (DHBV); conditions: cited from earlier work
HBsAg and HBeAg = conditions: animal experiments; cited from earlier work
[2] = high dose group (800 mg sedoisoprosan), after 12 weeks' treatment
[3] = high dose group, after 12 weeks' treatment
[4] = low dose group (200 mg sedoisoprosan with 600 mg mannite), after 12 weeks' treatment
[5] = median dose group (400 mg sedoisoprosan with 400 mg mannite), after 12 weeks' treatment

Question: Which “mitogenic activity of ConA and LPS” value (lymphocytes) does the source give for `CC1(C)OC2C3COC(CO)(O3)C(O)C2O1` (stereo not shown) [sedoisoprosan, isopropylidene sedoheptulosan] here?
Answer: enhance

Question: What about the transformation of lymphocytes (lymphocytes) of the same compound?
Answer: promote

Question: And the “HBV-DNA levels, dose-effect relationship” value (hepatitis B virus; 200, 400, 800 mg, after 12 weeks' treatment)?
Answer: tended to decrease more as the doses increased

Question: And the “The 12th Week Decrease Values of lg(HBV-DNA), mean ± SD” value (hepatitis B virus; high dose group (800 mg sedoisoprosan), 16 cases)?
Answer: 0.96 ± 1.41

Question: What about the “Biochemical Response Rates” value (hepatitis B virus; [2]) of the same compound?
Answer: 18.75%

Question: And the “Combined Response Rates” value (hepatitis B virus; [2])?
Answer: 6.25%

Question: And the “HBeAg Negative Conversion Rates” value (hepatitis B virus; [2])?
Answer: 6.25%

Question: What about the “Virologic Response Rate” value (hepatitis B virus; high dose group (800 mg sedoisoprosan), the 4th week, 16 cases) of the same compound?
Answer: 0.00%

Question: What about the “Virologic Response Rate” value (hepatitis B virus; high dose group (800 mg sedoisoprosan), the 8th week, 16 cases) of the same compound?
Answer: 12.50%

Question: What about the “Virologic Response Rate” value (hepatitis B virus; high dose group (800 mg sedoisoprosan), the 12th week, 16 cases) of the same compound?
Answer: 18.75%

Question: What about the “cases of HBeAg negative conversion” value (hepatitis B virus; [3]) of the same compound?
Answer: one

Question: What about the “decrease values of lg(HBV-DNA), comparison within the group” value (hepatitis B virus; [3]) of the same compound?
Answer: significant differences

Question: And the “effect on hepatitis B virus (conclusion of the clinical trials)” value (hepatitis B virus; human HBeAg positive chronic hepatitis B)?
Answer: effectively inhibit hepatitis B virus

Question: And the “The 12th Week Decrease Values of lg(HBV-DNA), mean ± SD” value (hepatitis B virus; low dose group (200 mg sedoisoprosan with 600 mg mannite), 13 cases)?
Answer: 0.52 ± 1.28

Question: And the “Biochemical Response Rates” value (hepatitis B virus; [4])?
Answer: 6.25%

Question: And the “Combined Response Rates” value (hepatitis B virus; [4])?
Answer: 0%

Question: And the “HBeAg Negative Conversion Rates” value (hepatitis B virus; [4])?
Answer: 0%

Question: What about the “Virologic Response Rate” value (hepatitis B virus; low dose group (200 mg sedoisoprosan with 600 mg mannite), the 4th week, 13 cases) of the same compound?
Answer: 15.38%

Question: And the “Virologic Response Rate” value (hepatitis B virus; low dose group (200 mg sedoisoprosan with 600 mg mannite), the 8th week, 13 cases)?
Answer: 15.38%

Question: What about the “Virologic Response Rate” value (hepatitis B virus; low dose group (200 mg sedoisoprosan with 600 mg mannite), the 12th week, 13 cases) of the same compound?
Answer: 15.38%

Question: And the “The 12th Week Decrease Values of lg(HBV-DNA), mean ± SD” value (hepatitis B virus; median dose group (400 mg sedoisoprosan with 400 mg mannite), 14 cases)?
Answer: 0.40 ± 0.90

Question: What about the “Biochemical Response Rates” value (hepatitis B virus; [5]) of the same compound?
Answer: 12.50%

Question: What about the “Combined Response Rates” value (hepatitis B virus; [5]) of the same compound?
Answer: 0%

Question: And the “HBeAg Negative Conversion Rates” value (hepatitis B virus; [5])?
Answer: 0%

Question: And the “Virologic Response Rate” value (hepatitis B virus; median dose group (400 mg sedoisoprosan with 400 mg mannite), the 4th week, 14 cases)?
Answer: 0.00%

Question: And the “Virologic Response Rate” value (hepatitis B virus; median dose group (400 mg sedoisoprosan with 400 mg mannite), the 8th week, 14 cases)?
Answer: 0.00%

Question: And the “Virologic Response Rate” value (hepatitis B virus; median dose group (400 mg sedoisoprosan with 400 mg mannite), the 12th week, 14 cases)?
Answer: 14.29%

Question: What about the “decrease values of lg(HBV-DNA), comparison within the group” value (hepatitis B virus; median dose group and low dose group, after 12 weeks' treatment) of the same compound?
Answer: no significant differences

Question: And the DHBV-DNA level ([1]; animal experiments)?
Answer: reduce

Question: What about the “serum DHBV-DNA levels” value ([1]; ducks infected with hepatitis B virus, intraperitoneal 200 mg/kg or 100 mg/kg twice a day for 14 days, seventh and fourteenth day) of the same compound?
Answer: obviously decreased

Question: What about the “secretion of HBsAg and HBeAg” value (HBsAg and HBeAg) of the same compound?
Answer: inhibit
